Where two headings read alike, the source gives them in different places.
Assays:
CK1a = CK1a (Homo sapiens, UniProt P48729); assay: binding to immobilized V16742 (IVA1/IVA2, HeLa lysate, MS)
RPL7 = RPL7 (Homo sapiens, UniProt P18124)
EphB2 = target: T1, EphB2 (Homo sapiens, UniProt P29323)
T1 sequence (P29323 19-1055): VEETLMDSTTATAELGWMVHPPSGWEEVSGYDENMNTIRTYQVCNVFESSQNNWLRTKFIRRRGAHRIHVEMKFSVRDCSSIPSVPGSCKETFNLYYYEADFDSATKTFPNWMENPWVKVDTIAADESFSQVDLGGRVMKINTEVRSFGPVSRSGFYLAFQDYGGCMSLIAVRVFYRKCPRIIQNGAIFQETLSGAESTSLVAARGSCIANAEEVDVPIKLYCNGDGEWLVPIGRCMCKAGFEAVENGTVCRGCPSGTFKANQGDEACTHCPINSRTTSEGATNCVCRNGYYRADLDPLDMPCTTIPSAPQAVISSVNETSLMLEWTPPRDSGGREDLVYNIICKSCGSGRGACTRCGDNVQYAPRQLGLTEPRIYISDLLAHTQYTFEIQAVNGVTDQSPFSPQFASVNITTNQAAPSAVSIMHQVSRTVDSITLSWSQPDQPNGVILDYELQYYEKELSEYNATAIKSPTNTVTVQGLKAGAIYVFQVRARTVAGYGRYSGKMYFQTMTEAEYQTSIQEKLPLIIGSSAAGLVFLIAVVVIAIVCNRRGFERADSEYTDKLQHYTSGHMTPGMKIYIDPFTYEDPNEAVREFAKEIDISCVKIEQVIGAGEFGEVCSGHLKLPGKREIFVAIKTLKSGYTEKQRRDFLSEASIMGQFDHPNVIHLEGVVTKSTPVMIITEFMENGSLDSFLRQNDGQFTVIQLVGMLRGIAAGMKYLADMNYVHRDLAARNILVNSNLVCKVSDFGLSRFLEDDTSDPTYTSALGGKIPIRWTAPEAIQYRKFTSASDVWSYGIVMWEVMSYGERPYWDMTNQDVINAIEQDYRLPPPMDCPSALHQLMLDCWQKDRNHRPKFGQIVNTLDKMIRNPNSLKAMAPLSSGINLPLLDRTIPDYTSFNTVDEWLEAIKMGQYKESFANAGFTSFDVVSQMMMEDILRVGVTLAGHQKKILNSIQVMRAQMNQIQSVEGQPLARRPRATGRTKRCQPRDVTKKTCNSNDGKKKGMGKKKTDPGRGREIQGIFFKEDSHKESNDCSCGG

RPL27A = RPL27A (Homo sapiens, UniProt P46776)
CDK7 = target: T2, CDK7 (Homo sapiens, UniProt P50613); assay: binding to immobilized V16742 (IVA1/IVA2, HeLa lysate, MS)
T2 construct: endogenous in cells; host or cells: HeLa S3

[1] = target: T3, MST3 (STK24, IPI00872754) (Homo sapiens, UniProt Q9Y6E0); assay: binding to VI16742 beads (HeLa lysate, SILAC MS)
T3 construct: endogenous in cells; host or cells: HeLa S3 cell lysate

CCNK (IPI00783214) = assay: binding to VI16742 beads (HeLa lysate, SILAC MS); parameters: species or system human
Description: (§1) In an alternative implementation of the chemical proteomic approach according to the invention, the broadly-selective pyrido[2,3-d]pyrimidine-based kinase inhibitor VI16742 has been used for affinity capture (FIG. 10a). […] As shown by gene ontology analysis, the corresponding molecular functions were highly over-represented in proteins specifically retained by the inhibitor resin (FIG. 10b).

ERCC2 (IPI00029728) = assay: binding to VI16742 beads (HeLa lysate, SILAC MS); parameters: species or system human
Description: as §1

RSU1 (IPI00847168) = assay: binding to VI16742 beads (HeLa lysate, SILAC MS); parameters: species or system human
Description: as §1

WDR68 (IPI00006754) = assay: binding to VI16742 beads (HeLa lysate, SILAC MS); parameters: species or system human
Description: as §1

LIMS1 (IPI00788612) = assay: binding to VI16742 beads (HeLa lysate, SILAC MS); parameters: species or system human
Description: as §1

PARVA (IPI00018963) = assay: binding to VI16742 beads (HeLa lysate, SILAC MS); parameters: species or system human
Description: as §1

CCNH (IPI00021305) = assay: binding to VI16742 beads (HeLa lysate, SILAC MS); parameters: species or system human
Description: as §1

[2] = control beads vs first incubation

T3 sequence (Q9Y6E0 whole entry): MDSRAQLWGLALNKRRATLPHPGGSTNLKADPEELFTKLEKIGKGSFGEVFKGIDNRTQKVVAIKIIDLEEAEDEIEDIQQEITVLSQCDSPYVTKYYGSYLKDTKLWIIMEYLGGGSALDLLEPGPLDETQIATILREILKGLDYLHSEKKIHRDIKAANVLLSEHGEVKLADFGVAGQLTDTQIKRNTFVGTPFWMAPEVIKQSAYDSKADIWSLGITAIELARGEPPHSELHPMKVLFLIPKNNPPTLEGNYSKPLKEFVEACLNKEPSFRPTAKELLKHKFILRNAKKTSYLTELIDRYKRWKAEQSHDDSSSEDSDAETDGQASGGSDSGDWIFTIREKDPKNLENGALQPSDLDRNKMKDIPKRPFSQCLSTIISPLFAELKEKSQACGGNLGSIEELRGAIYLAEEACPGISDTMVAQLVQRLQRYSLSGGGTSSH
T2 sequence (P50613 whole entry): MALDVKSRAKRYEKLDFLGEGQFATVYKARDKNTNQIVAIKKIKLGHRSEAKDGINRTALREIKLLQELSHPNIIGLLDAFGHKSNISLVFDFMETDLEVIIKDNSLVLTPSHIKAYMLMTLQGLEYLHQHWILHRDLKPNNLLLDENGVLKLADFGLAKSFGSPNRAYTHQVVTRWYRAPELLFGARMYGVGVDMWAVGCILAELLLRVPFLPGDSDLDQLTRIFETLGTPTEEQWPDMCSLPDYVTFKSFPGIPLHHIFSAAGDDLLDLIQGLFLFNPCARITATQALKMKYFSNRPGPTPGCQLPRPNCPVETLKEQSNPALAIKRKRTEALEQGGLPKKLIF
Chain of CK1a (P48729 whole entry): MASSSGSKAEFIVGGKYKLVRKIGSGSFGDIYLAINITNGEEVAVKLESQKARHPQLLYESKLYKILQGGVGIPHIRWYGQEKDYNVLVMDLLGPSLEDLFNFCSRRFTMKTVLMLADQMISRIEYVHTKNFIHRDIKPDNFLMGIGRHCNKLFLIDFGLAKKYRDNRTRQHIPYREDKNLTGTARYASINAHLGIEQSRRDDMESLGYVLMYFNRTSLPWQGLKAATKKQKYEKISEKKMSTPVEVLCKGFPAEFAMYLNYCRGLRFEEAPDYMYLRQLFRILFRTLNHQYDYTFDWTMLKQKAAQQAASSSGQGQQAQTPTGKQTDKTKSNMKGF

In the case of `CC(C)n1c(=O)ccc2cnc(Nc3ccc(OCCN)cc3)nc21` [compound 16742], the “Percent bound at 1.87 μM 16742 conc” value (CK1a; EXPERIMENT 1) is reported as 6.51%, the “Percent bound at 8.74 μM 16742 conc” value (CK1a; EXPERIMENT 1) is reported as 31.78% and the “Percent bound at 52 μM 16742 conc” value (CK1a; EXPERIMENT 1) is reported as 60.94%. For the same compound, the Kd (CK1a; EXPERIMENT 1, read-out: Kd) was 20.8 µM, the “Percent bound at 1.87 μM 16742 conc” value (CK1a; EXPERIMENT 2) was 5.11% and the “Percent bound at 8.74 μM 16742 conc” value (CK1a; EXPERIMENT 2) was 34.46%. For the same compound, the “Percent bound at 52 μM 16742 conc” value (CK1a; EXPERIMENT 2) was 83.66%, the Kd (CK1a; EXPERIMENT 2, read-out: Kd) was 16.8 µM and the Kd (CK1a; read-out: Kd Avg) was 18.8 µM.

In the case of `COc1cc2ncnc(Nc3ccc(F)c(Cl)c3)c2cc1OCCCN1CCOCC1` [gefitinib], the “rAVERAGE (10 nM/0 nM Gef.)” value (RPL7) is reported as 0.84, the “rAVERAGE (100 nM/0 nM Gef.)” value (RPL7) is reported as 1.08 and the “rAVERAGE (1000 nM/0 nM Gef.)” value (RPL7) is reported as 0.86. The “rAVERAGE (10000 nM/0 nM Gef.)” value (RPL7) was 0.98, the “rAVERAGE (10 nM/0 nM Gef.)” value (EphB2) was 0.88 and the “rAVERAGE (100 nM/0 nM Gef.)” value (EphB2) was 0.90. The “rAVERAGE (1000 nM/0 nM Gef.)” value (EphB2) was 0.85, the “rAVERAGE (10000 nM/0 nM Gef.)” value (EphB2) was 0.33 and the “rAVERAGE (10 nM/0 nM Gef.)” value (RPL27A) was 0.87. The “rAVERAGE (100 nM/0 nM Gef.)” value (RPL27A) was 1.05, the “rAVERAGE (1000 nM/0 nM Gef.)” value (RPL27A) was 0.81 and the “rAVERAGE (10000 nM/0 nM Gef.)” value (RPL27A) was 1.03.

In the case of `CC(C)n1c(=O)ccc2cnc(Nc3ccc(OCCN)cc3)nc21` [V16742], the “Percent bound at various 16742 conc” value (CDK7; Experiment 1, 1.87 μM 16742) is reported as 5.76%, the “Percent bound at various 16742 conc” value (CDK7; Experiment 1, 8.74 μM 16742) is reported as 22.04% and the “Percent bound at various 16742 conc” value (CDK7; Experiment 1, 52 μM 16742) is reported as 53.96%. The Kd (CDK7; Experiment 1, read-out: Kd) was 39.8 µM, the “Percent bound at various 16742 conc” value (CDK7; Experiment 2, 1.87 μM 16742) was 2.34% and the “Percent bound at various 16742 conc” value (CDK7; Experiment 2, 8.74 μM 16742) was 13.18%. The “Percent bound at various 16742 conc” value (CDK7; Experiment 2, 52 μM 16742) was 45.57%, the Kd (CDK7; Experiment 2, read-out: Kd) was 61.5 µM and the Kd (CDK7; average of two experiments, read-out: Kd Avg) was 50.7 µM. The “r (5 h/2.5 h INC. TIME)” value ([1]; 5 h vs 2.5 h incubation time) was 1.41, the “rAVERAGE (CTRL/1 INC)” value [1, 2] was 0.06 and the Ki ([1]; immobilized VI16742) was 89.8 µM. The “rAVERAGE (2 INC/1 INC)” value ([1]; second vs first incubation) was 0.63, the “r (3 MG/1 MG LYSATE)” value (CCNK (IPI00783214); 3 mg vs 1 mg lysate) was 3.84 and the “r (5 h/2.5 h INC. TIME)” value (CCNK (IPI00783214); 5 h vs 2.5 h incubation time) was 1.27. The “rAVERAGE (CTRL/1 INC)” value (CCNK (IPI00783214); [2]) was 0.12, the Ki (CCNK (IPI00783214); immobilized VI16742) was 120 µM and the “rAVERAGE (2 INC/1 INC)” value (CCNK (IPI00783214); second vs first incubation) was 0.70. The “rAVERAGE (CTRL/1 INC)” value (ERCC2 (IPI00029728); [2]) was 0.17, the Ki (ERCC2 (IPI00029728); immobilized VI16742) was 118 µM and the “rAVERAGE (2 INC/1 INC)” value (ERCC2 (IPI00029728); second vs first incubation) was 0.69. For the same compound, the “r (5 h/2.5 h INC. TIME)” value (RSU1 (IPI00847168); 5 h vs 2.5 h incubation time) was 1.34, the “rAVERAGE (CTRL/1 INC)” value (RSU1 (IPI00847168); [2]) was 0.07 and the Ki (RSU1 (IPI00847168); immobilized VI16742) was 216 µM. For the same compound, the “rAVERAGE (2 INC/1 INC)” value (RSU1 (IPI00847168); second vs first incubation) was 0.81, the “r (3 MG/1 MG LYSATE)” value (WDR68 (IPI00006754); 3 mg vs 1 mg lysate) was 2.58 and the “r (5 h/2.5 h INC. TIME)” value (WDR68 (IPI00006754); 5 h vs 2.5 h incubation time) was 1.31. For the same compound, the “rAVERAGE (CTRL/1 INC)” value (WDR68 (IPI00006754); [2]) was 0.17, the Ki (WDR68 (IPI00006754); immobilized VI16742) was 249 µM and the “rAVERAGE (2 INC/1 INC)” value (WDR68 (IPI00006754); second vs first incubation) was 0.83. For the same compound, the “rAVERAGE (CTRL/1 INC)” value (LIMS1 (IPI00788612); [2]) was 0.04, the Ki (LIMS1 (IPI00788612); immobilized VI16742) was 143 µM and the “rAVERAGE (2 INC/1 INC)” value (LIMS1 (IPI00788612); second vs first incubation) was 0.73. For the same compound, the “rAVERAGE (CTRL/1 INC)” value (PARVA (IPI00018963); [2]) was 0.06, the Ki (PARVA (IPI00018963); immobilized VI16742) was 155 µM and the “rAVERAGE (2 INC/1 INC)” value (PARVA (IPI00018963); second vs first incubation) was 0.75. For the same compound, the “rAVERAGE (CTRL/1 INC)” value (CCNH (IPI00021305); [2]) was 0.05, the Ki (CCNH (IPI00021305); immobilized VI16742) was 96.9 µM and the “rAVERAGE (2 INC/1 INC)” value (CCNH (IPI00021305); second vs first incubation) was 0.65.

Reference: patent US8959984B2, “Proteome-wide quantification of small molecule binding to cellular target proteins” (priority 2007, dated 2015)
